The compounds below were run against T1, human NaV 1.8 (Homo sapiens, UniProt Q9Y5Y9) (assay: Automated whole-cell patch clamp (Qube384) voltage-clamp recordings of sodium currents in HEK-NaV1.8 cell line). Conditions: read-out: Potency category (human NaV 1.8 IC50).
T1 construct: expressed in transfected cells; host or cells: HEK (recombinant cell line)
Assay type: cell-based
Outline: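 HEK cells expressing NaV1.8 with b3, whole-cell automated voltage clamp at room temperature or 19° C.; CsF-based internal, pH 7.4 external. State-dependent (−120 mV, V1/2 4 s, −10 mV test pulses) and 10/20 Hz 40-pulse protocols; ~12 min compound, vehicle-corrected, IC50 by 4-parameter logistic fit.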

T1 sequence (Q9Y5Y9 whole entry): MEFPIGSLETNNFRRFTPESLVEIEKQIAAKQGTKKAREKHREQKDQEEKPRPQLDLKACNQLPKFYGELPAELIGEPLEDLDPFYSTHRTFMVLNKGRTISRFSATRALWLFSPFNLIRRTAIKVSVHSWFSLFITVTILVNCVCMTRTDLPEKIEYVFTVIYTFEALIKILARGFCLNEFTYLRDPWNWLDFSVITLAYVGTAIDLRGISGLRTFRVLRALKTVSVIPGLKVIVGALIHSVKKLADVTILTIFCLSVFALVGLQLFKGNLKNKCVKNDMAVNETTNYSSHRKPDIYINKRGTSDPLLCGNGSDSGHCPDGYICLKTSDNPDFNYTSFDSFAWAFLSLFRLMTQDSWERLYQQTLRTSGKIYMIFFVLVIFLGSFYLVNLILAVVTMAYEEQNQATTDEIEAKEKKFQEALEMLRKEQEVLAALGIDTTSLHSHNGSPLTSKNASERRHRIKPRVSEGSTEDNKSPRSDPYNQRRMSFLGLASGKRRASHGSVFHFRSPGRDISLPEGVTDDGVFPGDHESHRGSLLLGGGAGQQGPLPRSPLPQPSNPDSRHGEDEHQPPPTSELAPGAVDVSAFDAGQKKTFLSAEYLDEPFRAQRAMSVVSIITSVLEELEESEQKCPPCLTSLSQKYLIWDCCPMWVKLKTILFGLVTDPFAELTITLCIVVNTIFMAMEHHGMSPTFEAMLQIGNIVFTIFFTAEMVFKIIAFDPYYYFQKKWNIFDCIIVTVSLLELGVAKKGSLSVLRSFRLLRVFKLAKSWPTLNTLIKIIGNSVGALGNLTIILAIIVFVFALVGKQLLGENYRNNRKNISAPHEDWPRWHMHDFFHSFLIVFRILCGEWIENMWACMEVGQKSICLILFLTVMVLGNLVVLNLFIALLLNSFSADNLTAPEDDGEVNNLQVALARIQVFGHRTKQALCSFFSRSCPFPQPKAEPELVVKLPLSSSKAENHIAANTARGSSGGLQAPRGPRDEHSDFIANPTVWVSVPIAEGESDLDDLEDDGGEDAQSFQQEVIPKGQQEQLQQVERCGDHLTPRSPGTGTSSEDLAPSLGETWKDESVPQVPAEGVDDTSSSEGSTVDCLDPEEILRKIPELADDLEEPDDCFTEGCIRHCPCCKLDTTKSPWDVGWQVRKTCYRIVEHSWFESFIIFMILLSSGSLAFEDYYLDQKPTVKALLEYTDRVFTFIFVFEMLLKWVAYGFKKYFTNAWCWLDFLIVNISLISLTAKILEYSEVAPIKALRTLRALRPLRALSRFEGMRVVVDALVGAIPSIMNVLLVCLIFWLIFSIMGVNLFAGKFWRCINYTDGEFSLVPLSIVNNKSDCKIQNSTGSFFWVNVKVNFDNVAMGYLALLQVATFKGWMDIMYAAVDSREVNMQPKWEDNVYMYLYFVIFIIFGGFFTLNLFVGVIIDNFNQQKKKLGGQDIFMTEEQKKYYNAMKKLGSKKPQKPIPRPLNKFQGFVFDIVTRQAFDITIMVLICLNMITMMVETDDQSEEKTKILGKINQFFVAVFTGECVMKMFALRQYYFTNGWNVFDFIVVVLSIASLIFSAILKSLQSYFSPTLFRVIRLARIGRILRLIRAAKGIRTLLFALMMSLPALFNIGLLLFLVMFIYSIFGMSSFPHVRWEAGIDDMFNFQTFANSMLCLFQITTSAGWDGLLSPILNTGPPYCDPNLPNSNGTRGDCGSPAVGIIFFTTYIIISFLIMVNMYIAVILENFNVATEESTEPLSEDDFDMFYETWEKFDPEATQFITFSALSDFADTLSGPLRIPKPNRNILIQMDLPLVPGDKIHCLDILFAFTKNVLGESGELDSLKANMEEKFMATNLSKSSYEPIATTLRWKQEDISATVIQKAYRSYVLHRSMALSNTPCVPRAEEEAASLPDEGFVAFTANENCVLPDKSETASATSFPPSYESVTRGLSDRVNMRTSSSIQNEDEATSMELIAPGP

Question: For `C[C@@H]1C[C@H]1c1nn(CC2(C)CC(F)(F)C2)c(C(=O)Nc2ccnc([S@@](C)(=N)=O)c2)c1C(F)(F)F` (single isomer, unassigned) [Example 65d, 1-((3,3-Difluoro-1-methylcyclobutyl)methyl)-3-((trans)-2-methylcyclopropyl)-N-(2-(S-methylsulfonimidoyl)pyridin-4-yl)-4-(trifluoromethyl)-1H-pyrazole-5-carboxamide], which IC50 is on record?
Answer: ≤ 100 nM

Question: Which IC50 does the source give for `CC1(Cn2nc(C3CC3(F)F)c(C(F)(F)F)c2C(=O)Nc2ccnc(S(C)(=N)=O)c2)CC(F)(F)C1` (single isomer, unassigned) [Example 63a, 1-((3,3-Difluoro-1-methylcyclobutyl)methyl)-3-(2,2-difluorocyclopropyl)-N-(2-(S-methylsulfonimidoyl)pyridin-4-yl)-4-(trifluoromethyl)-1H-pyrazole-5-carboxamide] here?
Answer: ≤ 100 nM

Question: How did the IC50 turn out when `C[S@](=N)(=O)c1cccc(NC(=O)c2c(C(F)(F)F)c(C3(F)CC3)nn2CC2C[C@H]2C(F)(F)F)c1` (single isomer, unassigned) [Example 134d, 3-(1-Fluorocyclopropyl)-N-(3-(S-methylsulfonimidoyl)phenyl)-4-(trifluoromethyl)-1-(((trans)-2-(trifluoromethyl)cyclopropyl)methyl)-1H-pyrazole-5-carboxamide] was run?
Answer: ≤ 100 nM

Question: `C[C@H]1C[C@@H]1c1nn(CC2(C)CC(F)(F)C2)c(C(=O)Nc2ccnc([S@](C)(=N)=O)c2)c1C(F)(F)F` (single isomer, unassigned) [Example 65a, 1-((3,3-Difluoro-1-methylcyclobutyl)methyl)-3-((trans)-2-methylcyclopropyl)-N-(2-(S-methylsulfonimidoyl)pyridin-4-yl)-4-(trifluoromethyl)-1H-pyrazole-5-carboxamide] was tested. Which IC50 did it give?
Answer: ≤ 100 nM

Question: `CC1(Cn2nc(C3CC(F)(F)C3)c(C(F)(F)F)c2C(=O)Nc2ccnc(S(C)(=N)=O)c2)CC(F)(F)C1` (single isomer, unassigned) [Example 57b, 1-((3,3-Difluoro-1-methylcyclobutyl)methyl)-3-(3,3-difluorocyclobutyl)-N-(2-(S-methylsulfonimidoyl)pyridin-4-yl)-4-(trifluoromethyl)-1H-pyrazole-5-carboxamide] was tested. Which IC50 did it give?
Answer: ≤ 100 nM

Question: `C[S@@](=N)(=O)c1cc(NC(=O)c2c(C(F)(F)F)c(C3CC3)nn2C[C@]2(C)C[C@H](C(F)(F)F)C2)ccn1` (single isomer, unassigned) [Example 86a, 3-cyclopropyl-1-(((trans)-1-methyl-3-(trifluoromethyl)cyclobutyl)methyl)-N-(2-(S-methylsulfonimidoyl)pyridin-4-yl)-4-(trifluoromethyl)-1H-pyrazole-5-carboxamide] was tested. Which IC50 did it give?
Answer: ≤ 100 nM

Question: For `CC1(Cn2nc(C34CC(C3)C4)c(C(F)(F)F)c2C(=O)Nc2ccnc(S(C)(=N)=O)c2)CC(F)(F)C1` (single isomer, unassigned) [Example 58a, 3-(Bicyclo[1.1.1]pentan-1-yl)-1-((3,3-difluoro-1-methylcyclobutyl)methyl)-N-(2-(S-methylsulfonimidoyl)pyridin-4-yl)-4-(trifluoromethyl)-1H-pyrazole-5-carboxamide], which IC50 is on record?
Answer: ≤ 100 nM

Question: With `CC1(Cn2nc(C3CC3)c(C(F)(F)F)c2C(=O)Nc2ccc(F)c(S(C)(=N)=O)c2)CC(F)(F)C1` (single isomer, unassigned) [Example 132a, 3-Cyclopropyl-1-((3,3-difluoro-1-methylcyclobutyl)methyl)-N-(4-fluoro-3-(S-methylsulfonimidoyl)phenyl)-4-(trifluoromethyl)-1H-pyrazole-5-carboxamide] as the compound, how does the IC50 read?
Answer: ≤ 100 nM

Question: `CC1(Cn2nc(C3CC3)c(C(F)(F)F)c2C(=O)Nc2ccnc(S(C)(=N)=O)c2)CCC(F)(F)C1` (single isomer, unassigned) [Example 29b, 3-Cyclopropyl-1-((3,3-difluoro-1-methylcyclopentyl)methyl)-N-(2-(S-methylsulfonimidoyl)pyridin-4-yl)-4-(trifluoromethyl)-1H-pyrazole-5-carboxamide] was tested. Which IC50 did it give?
Answer: ≤ 100 nM

Question: Which IC50 does the source give for `CS(=N)(=O)c1cc(NC(=O)c2c(C(F)(F)F)c(C3CC3)nn2CC2(C(F)(F)F)CCCC2)ccn1` (single isomer, unassigned) [Example 98a, 3-cyclopropyl-N-(2-(S-methylsulfonimidoyl)pyridin-4-yl)-4-(trifluoromethyl)-1-((1-(trifluoromethyl)cyclopentyl)methyl)-1H-pyrazole-5-carboxamide] here?
Answer: ≤ 100 nM

Question: With `COC1(c2nn(CC3(C)CC(F)(F)C3)c(C(=O)Nc3ccnc(S(C)(=N)=O)c3)c2C(F)(F)F)CC1` (single isomer, unassigned) [Example 71a, 1-((3,3-difluoro-1-methylcyclobutyl)methyl)-3-(1-methoxycyclopropyl)-N-(2-(S-methylsulfonimidoyl)pyridin-4-yl)-4-(trifluoromethyl)-1H-pyrazole-5-carboxamide] as the compound, how does the IC50 read?
Answer: 100 to 1000 nM

Question: `CC1(Cn2nc(C(C)(C)F)c(C(F)(F)F)c2C(=O)Nc2ccnc(S(C)(=N)=O)c2)CC(F)(F)C1` (single isomer, unassigned) [Example 148a, 1-((3,3-Difluoro-1-methylcyclobutyl)methyl)-3-(2-fluoropropan-2-yl)-N-(2-(S-methylsulfonimidoyl)pyridin-4-yl)-4-(trifluoromethyl)-1H-pyrazole-5-carboxamide] was tested. Which IC50 did it give?
Answer: ≤ 100 nM

Question: For `CS(=N)(=O)c1cc(NC(=O)c2c(C(F)(F)F)c(C3CC3)nn2CC23CC2CC(F)(F)C3)ccn1` (single isomer, unassigned) [Example 95b, 3-Cyclopropyl-1-((3,3-difluorobicyclo[3.1.0]hexan-1-yl)methyl)-N-(2-(S-methylsulfonimidoyl)pyridin-4-yl)-4-(trifluoromethyl)-1H-pyrazole-5-carboxamide], which IC50 is on record?
Answer: ≤ 100 nM

Question: How did the IC50 turn out when `CS(=N)(=O)c1cc(NC(=O)c2c(C(F)(F)F)c(C3CC3)nn2CC23CC(CC2(F)F)C3)ccn1` (single isomer, unassigned) [Example 103a, 3-cyclopropyl-1-((2,2-difluorobicyclo[2.1.1]hexan-1-yl)methyl)-N-(2-(S-methylsulfonimidoyl)pyridin-4-yl)-4-(trifluoromethyl)-1H-pyrazole-5-carboxamide] was run?
Answer: ≤ 100 nM

Question: With `C[S@@](=N)(=O)c1cccc(NC(=O)c2c(C(F)(F)F)c(C3(F)CC3)nn2CC2C[C@H]2C(F)(F)F)c1` (single isomer, unassigned) [Example 134c, 3-(1-Fluorocyclopropyl)-N-(3-(S-methylsulfonimidoyl)phenyl)-4-(trifluoromethyl)-1-(((trans)-2-(trifluoromethyl)cyclopropyl)methyl)-1H-pyrazole-5-carboxamide] as the compound, how does the IC50 read?
Answer: ≤ 100 nM

Question: Which IC50 does the source give for `CC1(Cn2nc(C3CC3)c(C(F)(F)F)c2C(=O)Nc2cccc(S(C)(=N)=O)c2)CC(F)(F)C1` (single isomer, unassigned) [Example 45b, 3-cyclopropyl-1-((3,3-difluoro-1-methylcyclobutyl)methyl)-N-(3-(S-methylsulfonimidoyl)phenyl)-4-(trifluoromethyl)-1H-pyrazole-5-carboxamide] here?
Answer: ≤ 100 nM
